Measured values: article PMC9181902 (Journal of the American Chemical Society, 2022)
Entries after “also recorded” stand apart in the source; their conditions may differ. One block for each compound: values may come before it.

How the values were obtained:
hOAT [1] = biological target: T1, hOAT (Homo sapiens, UniProt P04181); conditions: cited from earlier work
T1 sequence (P04181 26-439): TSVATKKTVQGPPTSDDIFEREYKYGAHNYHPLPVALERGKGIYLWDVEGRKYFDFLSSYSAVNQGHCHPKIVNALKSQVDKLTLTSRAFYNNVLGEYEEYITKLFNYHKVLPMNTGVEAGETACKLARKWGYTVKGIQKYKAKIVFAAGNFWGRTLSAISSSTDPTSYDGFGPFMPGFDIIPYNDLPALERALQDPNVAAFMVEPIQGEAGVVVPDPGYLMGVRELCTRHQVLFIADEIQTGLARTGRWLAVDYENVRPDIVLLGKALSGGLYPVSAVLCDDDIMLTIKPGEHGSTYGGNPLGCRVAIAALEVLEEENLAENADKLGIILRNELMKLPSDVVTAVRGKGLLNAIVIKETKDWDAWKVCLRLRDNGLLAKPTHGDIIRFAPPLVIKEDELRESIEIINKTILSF

[2] = cited from earlier work
GABA-AT [3] = test: Inhibition of GABA-AT; format: biochemical, human; conditions: even at high concentrations
Asp-AT = test: Inhibition of Asp-AT; format: biochemical, human; conditions: even at high concentrations
Ala-AT = test: Inhibition of Ala-AT; format: biochemical, human; conditions: even at high concentrations
hOAT [4] = biological target: T1, hOAT; test: Dialysis of inactivated hOAT, return of enzyme activity; format: biochemical
hOAT [5] = biological target: T1, hOAT; test: Partition ratio; format: biochemical
hOAT [6] = biological target: T1, hOAT; test: Stopped-flow transient state measurements of hOAT; format: biochemical
GABA-AT [7] = conditions: cited from earlier work

Structure (SMILES): N[C@H]1C[C@@H](C(=O)O)CC1=C(C(F)(F)F)C(F)(F)F [6c, (1S,3S)-3-amino-4-(hexafluoropropan-2-ylidenyl)cyclopentane-1-carboxylic Acid]
- Ki (hOAT [1]): 65 ± 10 µM
- in vivo antitumor efficacy [2]: potent in vivo antitumor efficacy

- enzyme activity recovered after dialysis (hOAT [4]; 91 h of dialysis, varying equivalents): no enzyme activity was recovered
- fraction undergoing ketimine hydrolysis to product 37 and PMP (hOAT [5]): ~ 70%
- fraction of the reaction forming tight-binding adduct 34 (hOAT [5]; according to the partition ratio (1/3.38)): ~ 30%
- first successive rate constant from fit of CCD data sets (k2’) (hOAT [6]; 500 μM of 10b): 0.22 s⁻¹
- second successive rate constant from fit of CCD data sets (k3’) (hOAT [6]; 500 μM of 10b): 0.21 s⁻¹
- third successive rate constant from fit of CCD data sets (k4) (hOAT [6]; 500 μM of 10b): 0.03 s⁻¹
- rate constant for formation of P1 from M2 (k4) (hOAT [6]; 410 nm, second phase, average): ~ 0.02 s^−1
Structure (SMILES): N[C@H]1C=C(C(=O)O)C[C@H]1C(F)F [10b, (3S,4R)-3-Amino-4-(difluoromethyl)cyclopent-1-ene-1-carboxylic Acid]
- inhibitory activity against GABA-AT (GABA-AT [3]): weak reversible inhibitor; also recorded: weak reversible inhibitory activity
- inhibitory activity against Asp-AT (Asp-AT): weak reversible inhibitory activity
- inhibitory activity against Ala-AT (Ala-AT): weak reversible inhibitory activity

- enzyme activity recovered after dialysis (hOAT [4]; 48 h of dialysis): no enzyme activity was recovered
Structure (SMILES): N[C@H]1C[C@@H](C(=O)O)CC1=C(F)F [compound 1, (1S,3S)-3-amino-4-(difluoromethylene)cyclopentane-1-carboxylic acid]

Structure (SMILES): N[C@H]1C=C(C(=O)O)CC1=C(F)F [compound 7, (S)-3-amino-4-(difluoromethylenyl)cyclopent-1-ene-1-carboxylic acid]
- enzyme activity recovered after dialysis (hOAT [4]; 48 h of dialysis): no enzyme activity was recovered
- type of inhibition of GABA-AT (GABA-AT [7]): partially irreversible inhibitors
